From patent US6303596A, “Use of taurolidine for treatment of leukemias” (priority 2000, dated 2001)

What was measured:
MM6 = test: TUNEL / propidium iodide flow cytometry, MM6; assay type: cell-based, human; conditions: for % TUNEL-positive: MM6, taurolidine 100 μg/ml or anisomycin 1 μg/ml for 4 h, assayed at 6 hours, mean ± SD
Description: (§1) In the second method, DNA fragmentation was detected via TUNEL assay according to the manufacturer's instructions. With this methodology, 2×10^6 cells were fixed with 2% paraformaldehyde, permeabilized with 0.1% Triton X-100/0.1% citrate, incubated at 37° C. with terminal deoxynucleotidyl transferase and FITC-dUTP, rinsed and analyzed by flow cytometry. Enhanced FITC signal indicates apoptosis-specific DNA fragmentation. Gavriali, et al, "Identification of programmed cell death in situ via specific labeling of nuclear DNA fragmentation," J Cell Biol 119:493 (1992). Parallel aliquots of unfixed cells were treated with PI and FITC-conjugated anti-CD14 and analyzed by flow cytometry, in order to identify cells with permeable cell membranes (since PI binds to DNA but is excluded from cells with intact plasma membranes) and also to determine the cell-specificity of the apoptotic signal.
Consequently, TUNEL analysis was performed on PBMC at 3, 6, or 24 hours after treatment with 25 to 100 μg/ml taurolidine. Aliquots of harvested cells were also labeled with FITC-conjugated anti-CD14 antibodies and PI, which allowed identification of monocytes (CD14-positive cells) and cells with damaged cell membranes (PI-positive cells). […] Thus, nearly 75% of the monocytes were TUNEL-positive following treatment with 100 μg/ml taurolidine for six hours. Confirmation that the TUNEL-positive cells were monocytes was obtained by staining with FITC-conjugated anti-CD14.
(§2) In another study, TUNEL assays were performed on all cell lines 6 hours after cells were initially exposed to taurolidine (cells were treated for 4 hours, rinsed, and then incubated for 2 more hours before TUNEL assay was performed).
. Taurolidine and anisomycin induced apoptosis in MM6, HL-60, and Jurkat cells (Table VIII). MM6 and HL-60 cells were similarly effected, with >80% TUNEL-positive cells after 6 hours. Jurkat cells were less sensitive, with approximately 50% of cells induced to undergo apoptosis after taurolidine treatment. After 6 hours, 73% of anisomycin-treated REH cells were apoptotic, with less than 20% of taurolidine-treated REH cells being TUNEL-positive. However, assay of cells 24 hours after
^a Analysis by flow cytometry after staining cells with propidium
iodide and processing for TUNEL.
Data are percent of total cell-size events, and are expressed as mean ±
Cells were treated for 4 hours with taurolidine (100 μg/ml) or
anisomycin (1 μg/ml), and then assayed at 6 hours.

ECV304 [1] = test: subcellular-sized events by flow cytometry, ECV304; assay type: cell-based, human; conditions: ECV304, after taurolidine treatment
Description: Less than 0.1% of ECV304 or GM5387 cells were TUNEL-positive 6 hours after treatment with taurolidine or anisomycin (Table VIII). Therefore, neither of these agents induce rapid DNA fragmentation in these cell types. However, there was approximately a 70% increase in the number of subcellular-sized events recorded by flow cytometry after taurolidine treatment of these cells, indicating some effect of taurolidine on cell integrity. These cell fragments were not stained by propidium iodide, consistent with them being apoptotic bodies.

[2] = tested on: ECV304 (endothelial cells); test: trypan blue exclusion, ECV304; assay type: cell-based, human; conditions: ECV304, after taurolidine treatment
Description: FIGS. 10A and 10B depict cell viability and growth rates for ECV304 cell line following taurolidine treatment, in terms of % trypan blue negative cells and % cell number, respectively. Cells were treated with various concentrations of taurolidine for 4 hours in AIM-V+0.01% BCS. After aliquots were collected for LDH assay, the remainder of the culture was rinsed in HBSS and resuspended in RPMI+10% BCS without taurolidine. Counts of trypan blue-negative cells (FIG. 10A), and total cell number (FIG. 10B), were recorded daily thereafter (with the measurement at Day 1 being made immediately after the 4 hour taurolidine treatment). Conditions were: no treatment (open circles); 25 μg/ml taurolidine (closed circles); 50 μg/ml taurolidine (open squares); 100 μg/ml taurolidine (closed squares); and vehicle alone (closed triangles). Doubling times were determined under each condition, and expressed as a percentage of the rate of doubling of untreated cells. These values are located to the right of the growth curves in (FIG. 10B). […]
HL-60 cells treated with 50 μl taurolidine. In these samples, LDH present in the culture medium was 8.3±2.3% of that released by completely lysed cells, compared with 2.3±0.8% measured in control cultures. […] After 4 hour treatment, cells were rinsed and returned to growth medium and monitored for viability and growth over the following 3 days. […]

ECV304 [3] = test: TUNEL / propidium iodide flow cytometry, ECV304; assay type: cell-based, human; conditions: ECV304, 6 hours after treatment
Description: as §1, §2
. Taurolidine and anisomycin induced apoptosis in MM6, HL-60, and Jurkat cells (Table VIII). MM6 and HL-60 cells were similarly effected, with >80% TUNEL-positive cells after 6 hours. […]
Data are percent of total cell-size events, and are expressed as mean ± […]

tissue factor (TF) = test: LPS-induced tissue factor (TF) expression in PBMC, ELISA; assay type: cell-based, human
Description: FIG. 2A represents MM6 cells; FIG. 2B represents PBMC. The cells were induced with LPS (hatched bars: 100 ng/ml LPS in RPMI supplemented with 10% BCS (RPMI+10% BCS); solid bars: 10 ng/ml in AIM-V+0.01% BCS) in the presence of varying concentrations of taurolidine,or with a dilution of the vehicle equivalent to that given to cells receiving 100 μg/ml taurolidine. After four hours, cells were collected and lysates were prepared for TF ELISA. Data are expressed as percent of TF antigen measured in cells treated with LPS alone (no taurolidine or vehicle). Experiments were performed with duplicate samples and were repeated at least three times. Values shown are mean±SEM of all experiments.
For induction of TF or TNFα expression, MM6 cells or PBMC were cultured either in RPMI supplemented with 10% BCS or in AIM-V+0.01% BCS, and stimulated by adding LPS to final concentrations of 10 to 100 ng/ml. […] Except as noted, taurolidine and LPS were added to the cell cultures simultaneously. For TF determination, cells and culture media together were treated by adding Triton X-100 (1% final) and EDTA (7 mmol/L final), and the resulting lysates assayed by ELISA. […] For TNFα determination, cells were removed by centrifugation for 5 min at 250×g, and the supernatants were assayed by ELISA.

[4] = septic patients, up to 20 grams for 2-5 consecutive days; cited from earlier work

## O=S1(=O)CCN(CN2CCS(=O)(=O)NC2)CN1 [taurolidine, 4,4'-methylenebis(perhydro-1,2,4-thiadiazin 1,1-dioxide)]
MM6; Homo sapiens, MONO-MAC-6, 3 h, read-out: % Propidium Iodide Positive Cells
  cytotoxicity at 50 µg/mL: 7%
MM6
  % TUNEL-positive: 80.9 ± 7.7%
MM6; listed as Taurolidine
  % TUNEL-positive: > 80%
MM6; MM6 cells
  onset of apoptosis after treatment: detectable within four to six hours
MM6; Mono Mac 6, 50 μg/ml, 3 hours
  % TUNEL-Negative Cells: 44%
ECV304 [1]
  increase in the number of subcellular-sized events: ~70%
[2]
  trypan blue staining during 4 day growth: did not demonstrate a significant increase in trypan blue staining
[2]; listed as Taurolidine
  trypan blue staining during 4 day growth: cells remained trypan blue negative
ECV304 [3]
  DNA fragmentation (TUNEL positivity): did not demonstrate evidence for fragmentation of DNA
Tissue factor (TF); PBMC, taurolidine 75 μg/ml, 4 h
  inhibition of LPS-induced TF expression: complete inhibition of TF expression
Tissue factor (TF); peripheral blood monocytes or cultured MM6 cells
  induction of TF in response to LPS (summary): strongly inhibited the induction of TF
[4]
  toxicity in humans: has not been associated with toxicity
